In ChEMBL document CHEMBL1148572, “1-((S)-2-aminopropyl)-1H-indazol-6-ol: a potent peripherally acting 5-HT2 receptor agonist with ocular hypotensive activity” (J Med Chem, 2006):

Tests used:
[1] = target: 5-hydroxytryptamine receptor 7 (Homo sapiens, UniProt P34969); assay: Activity at 5HT7 receptor expressed in human corneal epithelial CEPI-17-CL4 cells by adenylyl cyclase assay; assay type: functional, cell-based, Cornea
[2] = target: Leukotriene B4 receptor (Homo sapiens) (UniProt Q9NPC1+Q15722); assay: Inhibition of leukotriene B4 at 100 nM; assay type: protein assay
[3] = Inhibition of P2Y purinergic receptor at 1 nM
[4] = target: Epidermal growth factor receptor (Homo sapiens) (UniProt P00533); assay: Inhibition of EGFR at 10 uM
[5] = target: T1, 5-hydroxytryptamine receptor 1A (Homo sapiens) (UniProt P08908); assay: Inhibition of forskolin activated adenylate cyclase at 10 uM; assay type: functional
T1 sequence (whole entry): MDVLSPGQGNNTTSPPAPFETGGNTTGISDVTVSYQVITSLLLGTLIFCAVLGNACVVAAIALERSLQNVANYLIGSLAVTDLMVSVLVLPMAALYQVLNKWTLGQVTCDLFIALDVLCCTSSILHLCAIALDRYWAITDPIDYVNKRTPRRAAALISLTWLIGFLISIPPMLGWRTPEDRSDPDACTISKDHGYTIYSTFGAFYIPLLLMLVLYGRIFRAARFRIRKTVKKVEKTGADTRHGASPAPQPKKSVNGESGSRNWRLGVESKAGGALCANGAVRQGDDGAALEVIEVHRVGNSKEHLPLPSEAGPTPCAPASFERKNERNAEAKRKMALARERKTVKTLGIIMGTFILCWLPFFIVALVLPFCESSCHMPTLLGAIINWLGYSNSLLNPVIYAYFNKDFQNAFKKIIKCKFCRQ

[6] = target: T2, 5-hydroxytryptamine receptor 2C (Rattus norvegicus, UniProt P08909); assay: Activity against recombinant rat 5HT2C mediated intracellular calcium mobilization by FLIPR in SR3T3 cells
T2 sequence (P08909 whole entry): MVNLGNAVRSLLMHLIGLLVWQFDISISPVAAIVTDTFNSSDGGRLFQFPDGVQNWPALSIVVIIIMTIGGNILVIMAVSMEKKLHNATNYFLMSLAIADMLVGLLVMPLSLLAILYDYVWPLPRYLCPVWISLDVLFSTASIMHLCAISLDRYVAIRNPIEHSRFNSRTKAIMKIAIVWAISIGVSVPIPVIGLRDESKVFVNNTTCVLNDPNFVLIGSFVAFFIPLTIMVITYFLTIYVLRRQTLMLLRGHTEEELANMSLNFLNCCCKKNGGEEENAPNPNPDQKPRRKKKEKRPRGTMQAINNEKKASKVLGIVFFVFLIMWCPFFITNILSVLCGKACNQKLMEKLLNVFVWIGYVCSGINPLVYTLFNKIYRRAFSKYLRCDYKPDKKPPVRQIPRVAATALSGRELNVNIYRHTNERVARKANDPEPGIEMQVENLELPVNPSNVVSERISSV

[7] = target: Alpha-1B adrenergic receptor (Homo sapiens, UniProt P35368); assay: Inhibitory activity against adrenergic alpha-1B receptor
[8] = target: T3, GABA-A receptor; benzodiazepine site (Homo sapiens) (UniProt P14867+P18507+P48169+Q99928+P34903+Q8N1C3+P47869+P31644+Q16445); assay: Inhibition of central benzodiazepine site on GABAA receptor at 100 nM; assay type: protein-complex assay
[9] = target: Opioid receptors; mu/kappa/delta (Homo sapiens) (UniProt P41145+P41143+P35372); assay: Inhibition of non selective binding to opiate receptor at 1 nM; assay type: protein assay
[10] = target: T4, Alpha-2C adrenergic receptor (Homo sapiens, UniProt P18825); assay: Activity at adrenergic Alpha-2C receptor expressed in rat-mouse hybrid […] cell by adenylyl cyclase assay; assay type: functional, cell-based
T4 sequence (P18825 whole entry): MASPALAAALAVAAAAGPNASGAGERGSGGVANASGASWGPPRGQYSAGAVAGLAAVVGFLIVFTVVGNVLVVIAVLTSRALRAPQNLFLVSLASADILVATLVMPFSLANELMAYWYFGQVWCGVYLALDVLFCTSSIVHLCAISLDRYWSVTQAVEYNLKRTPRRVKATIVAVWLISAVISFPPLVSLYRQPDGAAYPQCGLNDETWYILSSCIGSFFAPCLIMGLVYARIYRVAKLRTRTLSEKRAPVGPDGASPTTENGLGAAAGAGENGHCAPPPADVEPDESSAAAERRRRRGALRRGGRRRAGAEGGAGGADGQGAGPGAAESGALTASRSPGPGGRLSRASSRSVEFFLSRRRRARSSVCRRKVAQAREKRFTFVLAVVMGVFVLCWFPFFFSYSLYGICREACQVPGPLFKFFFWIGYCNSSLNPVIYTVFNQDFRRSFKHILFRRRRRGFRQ

[11] = target: Sodium-dependent noradrenaline transporter (Homo sapiens, UniProt P23975); assay: Inhibition of NET at 100 nM
[12] = target: GABA-A receptor; agonist GABA site (Homo sapiens) (UniProt P14867+P47870+P28472+P48169+P34903+P18505+P47869+P31644+Q16445); assay: Inhibition of agonist site of GABAA receptor at 100 nM; assay type: functional
[13] = target: 5-hydroxytryptamine receptor 5A (Homo sapiens, UniProt P47898); assay: Inhibitory activity against 5HT5A receptor
[14] = Half life in phosphate buffer at pH 7.4 in 25 degC; assay type: ADME
[15] = target: T3, GABA-A receptor; benzodiazepine site (Homo sapiens); assay: Inhibition of central benzodiazepine site on GABAA receptor at 1 nM; assay type: protein-complex assay
[16] = target: Platelet-activating factor receptor (Homo sapiens) (UniProt P25105); assay: Inhibition of PAF at 1 nM
[17] = target: Alpha-2B adrenergic receptor (Homo sapiens, UniProt P18089); assay: Activity at adrenergic alpha-2B receptor expressed in opposum kidney OK cell by adenylyl cyclase assay; assay type: functional, cell-based
[18] = target: T5, monoamine oxidase B (MAO-B) (Rattus norvegicus, UniProt P19643); assay: Inhibition of monoamine oxidase B in rat brain at 10 uM; assay type: tissue-based
T5 sequence (P19643 whole entry): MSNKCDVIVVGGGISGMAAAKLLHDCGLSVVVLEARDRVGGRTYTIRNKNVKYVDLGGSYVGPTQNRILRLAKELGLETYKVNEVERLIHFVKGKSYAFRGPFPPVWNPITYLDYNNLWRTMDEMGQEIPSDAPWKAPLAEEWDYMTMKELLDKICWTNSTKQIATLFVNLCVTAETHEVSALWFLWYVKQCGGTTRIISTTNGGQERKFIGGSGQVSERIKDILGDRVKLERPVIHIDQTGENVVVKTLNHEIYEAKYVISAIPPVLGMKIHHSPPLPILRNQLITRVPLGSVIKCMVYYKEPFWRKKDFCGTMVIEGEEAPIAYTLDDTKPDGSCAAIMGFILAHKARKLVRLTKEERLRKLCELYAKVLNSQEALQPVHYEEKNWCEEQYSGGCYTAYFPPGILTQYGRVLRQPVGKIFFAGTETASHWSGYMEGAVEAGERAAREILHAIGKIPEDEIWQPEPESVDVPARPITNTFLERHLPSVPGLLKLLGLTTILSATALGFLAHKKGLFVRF

Sequence of 5-hydroxytryptamine receptor 7 (P34969 whole entry): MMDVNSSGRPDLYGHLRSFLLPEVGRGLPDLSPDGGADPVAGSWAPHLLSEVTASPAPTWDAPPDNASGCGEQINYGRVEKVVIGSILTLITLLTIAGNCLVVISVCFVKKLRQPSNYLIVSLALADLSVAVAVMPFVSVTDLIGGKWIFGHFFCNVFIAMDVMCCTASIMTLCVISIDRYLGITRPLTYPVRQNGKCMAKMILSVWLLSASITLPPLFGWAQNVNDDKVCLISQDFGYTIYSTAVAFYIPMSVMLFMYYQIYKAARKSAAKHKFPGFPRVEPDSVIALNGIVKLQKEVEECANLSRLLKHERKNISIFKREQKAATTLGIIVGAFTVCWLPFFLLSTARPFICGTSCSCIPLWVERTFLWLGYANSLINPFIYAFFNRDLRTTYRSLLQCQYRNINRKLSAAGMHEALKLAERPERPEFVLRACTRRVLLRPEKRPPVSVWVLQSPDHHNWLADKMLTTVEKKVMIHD
Sequence of Sodium-dependent noradrenaline transporter (P23975 whole entry): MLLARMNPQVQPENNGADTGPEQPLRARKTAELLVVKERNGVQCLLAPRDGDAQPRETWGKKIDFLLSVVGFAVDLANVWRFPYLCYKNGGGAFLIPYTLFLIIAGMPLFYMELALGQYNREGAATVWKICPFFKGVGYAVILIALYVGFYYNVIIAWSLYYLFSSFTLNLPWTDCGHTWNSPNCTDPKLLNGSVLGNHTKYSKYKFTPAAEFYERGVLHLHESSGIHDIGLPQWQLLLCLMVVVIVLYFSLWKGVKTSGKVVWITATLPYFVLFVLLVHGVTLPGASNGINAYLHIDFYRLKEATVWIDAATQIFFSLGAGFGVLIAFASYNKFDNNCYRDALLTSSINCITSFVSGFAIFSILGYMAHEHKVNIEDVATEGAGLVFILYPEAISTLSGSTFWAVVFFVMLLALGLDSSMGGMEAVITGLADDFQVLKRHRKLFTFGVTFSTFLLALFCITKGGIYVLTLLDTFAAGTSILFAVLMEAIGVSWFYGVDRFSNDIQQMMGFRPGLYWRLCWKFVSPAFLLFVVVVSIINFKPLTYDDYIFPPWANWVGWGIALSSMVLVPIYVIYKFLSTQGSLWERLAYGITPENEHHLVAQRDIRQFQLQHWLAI
Sequence of 5-hydroxytryptamine receptor 5A (P47898 whole entry): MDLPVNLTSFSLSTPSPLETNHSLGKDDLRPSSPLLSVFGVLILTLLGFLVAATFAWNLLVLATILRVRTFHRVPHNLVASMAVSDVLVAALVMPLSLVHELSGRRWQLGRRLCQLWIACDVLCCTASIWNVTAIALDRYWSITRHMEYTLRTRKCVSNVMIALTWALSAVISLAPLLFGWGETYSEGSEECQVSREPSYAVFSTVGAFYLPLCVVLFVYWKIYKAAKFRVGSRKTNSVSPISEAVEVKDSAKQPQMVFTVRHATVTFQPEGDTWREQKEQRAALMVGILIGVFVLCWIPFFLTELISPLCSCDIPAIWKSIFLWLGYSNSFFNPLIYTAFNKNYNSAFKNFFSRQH
Sequence of Leukotriene B4 receptor (Homo sapiens) (Q15722 whole entry, looked up): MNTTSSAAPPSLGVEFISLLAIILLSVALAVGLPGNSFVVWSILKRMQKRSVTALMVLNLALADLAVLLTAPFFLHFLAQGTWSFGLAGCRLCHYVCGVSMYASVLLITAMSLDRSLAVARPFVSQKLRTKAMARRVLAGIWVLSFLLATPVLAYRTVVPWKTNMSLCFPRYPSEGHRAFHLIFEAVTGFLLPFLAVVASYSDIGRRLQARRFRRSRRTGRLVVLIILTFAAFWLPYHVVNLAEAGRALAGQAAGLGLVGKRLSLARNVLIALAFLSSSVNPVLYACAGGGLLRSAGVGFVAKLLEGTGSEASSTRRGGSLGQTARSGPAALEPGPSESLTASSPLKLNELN
Sequence of Leukotriene B4 receptor (Homo sapiens) (Q9NPC1 whole entry, looked up): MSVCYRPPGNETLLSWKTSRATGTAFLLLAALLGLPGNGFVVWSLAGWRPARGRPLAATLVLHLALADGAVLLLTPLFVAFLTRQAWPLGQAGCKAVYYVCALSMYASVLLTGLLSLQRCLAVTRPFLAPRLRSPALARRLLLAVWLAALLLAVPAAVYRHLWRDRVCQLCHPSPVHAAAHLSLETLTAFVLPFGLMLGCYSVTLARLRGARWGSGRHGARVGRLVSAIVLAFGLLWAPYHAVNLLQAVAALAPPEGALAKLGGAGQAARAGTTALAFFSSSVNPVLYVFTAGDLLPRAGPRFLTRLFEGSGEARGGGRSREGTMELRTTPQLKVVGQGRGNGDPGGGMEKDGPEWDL
Sequence of Opioid receptors; mu/kappa/delta (Homo sapiens) (P35372 whole entry, looked up): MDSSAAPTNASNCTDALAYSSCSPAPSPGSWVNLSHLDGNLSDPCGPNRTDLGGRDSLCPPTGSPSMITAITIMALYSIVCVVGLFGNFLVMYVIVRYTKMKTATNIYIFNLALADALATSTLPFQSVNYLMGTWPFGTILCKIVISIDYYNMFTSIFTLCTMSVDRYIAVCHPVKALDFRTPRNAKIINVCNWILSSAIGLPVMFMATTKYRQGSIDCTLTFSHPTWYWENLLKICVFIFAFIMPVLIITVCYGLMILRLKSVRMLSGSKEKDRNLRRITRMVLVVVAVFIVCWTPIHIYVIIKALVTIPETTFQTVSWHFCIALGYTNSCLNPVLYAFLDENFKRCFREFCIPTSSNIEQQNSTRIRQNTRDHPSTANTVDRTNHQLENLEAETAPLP
Sequence of Opioid receptors; mu/kappa/delta (Homo sapiens) (P41143 whole entry, looked up): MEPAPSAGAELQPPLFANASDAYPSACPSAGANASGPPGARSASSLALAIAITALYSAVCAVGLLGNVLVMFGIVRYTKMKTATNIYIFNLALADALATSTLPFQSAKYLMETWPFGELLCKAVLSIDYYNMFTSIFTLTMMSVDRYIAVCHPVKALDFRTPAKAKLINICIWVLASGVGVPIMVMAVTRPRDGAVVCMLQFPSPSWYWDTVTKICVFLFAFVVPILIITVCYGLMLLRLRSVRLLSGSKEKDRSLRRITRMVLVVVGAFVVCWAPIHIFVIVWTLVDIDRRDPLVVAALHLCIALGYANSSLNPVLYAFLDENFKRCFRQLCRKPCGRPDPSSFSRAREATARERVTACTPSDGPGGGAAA
Sequence of Opioid receptors; mu/kappa/delta (Homo sapiens) (P41145 whole entry, looked up): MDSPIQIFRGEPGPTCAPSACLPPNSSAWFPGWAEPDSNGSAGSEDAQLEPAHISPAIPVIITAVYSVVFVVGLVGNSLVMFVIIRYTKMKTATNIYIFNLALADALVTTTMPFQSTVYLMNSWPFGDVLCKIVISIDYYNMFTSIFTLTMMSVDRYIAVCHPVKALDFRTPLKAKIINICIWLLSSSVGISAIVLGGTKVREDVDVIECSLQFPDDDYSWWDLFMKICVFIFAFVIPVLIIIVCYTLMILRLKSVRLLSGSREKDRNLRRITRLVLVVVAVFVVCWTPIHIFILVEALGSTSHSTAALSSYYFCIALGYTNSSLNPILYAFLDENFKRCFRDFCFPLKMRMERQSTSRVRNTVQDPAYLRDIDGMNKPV
Sequence of Epidermal growth factor receptor (Homo sapiens) (P00533 whole entry): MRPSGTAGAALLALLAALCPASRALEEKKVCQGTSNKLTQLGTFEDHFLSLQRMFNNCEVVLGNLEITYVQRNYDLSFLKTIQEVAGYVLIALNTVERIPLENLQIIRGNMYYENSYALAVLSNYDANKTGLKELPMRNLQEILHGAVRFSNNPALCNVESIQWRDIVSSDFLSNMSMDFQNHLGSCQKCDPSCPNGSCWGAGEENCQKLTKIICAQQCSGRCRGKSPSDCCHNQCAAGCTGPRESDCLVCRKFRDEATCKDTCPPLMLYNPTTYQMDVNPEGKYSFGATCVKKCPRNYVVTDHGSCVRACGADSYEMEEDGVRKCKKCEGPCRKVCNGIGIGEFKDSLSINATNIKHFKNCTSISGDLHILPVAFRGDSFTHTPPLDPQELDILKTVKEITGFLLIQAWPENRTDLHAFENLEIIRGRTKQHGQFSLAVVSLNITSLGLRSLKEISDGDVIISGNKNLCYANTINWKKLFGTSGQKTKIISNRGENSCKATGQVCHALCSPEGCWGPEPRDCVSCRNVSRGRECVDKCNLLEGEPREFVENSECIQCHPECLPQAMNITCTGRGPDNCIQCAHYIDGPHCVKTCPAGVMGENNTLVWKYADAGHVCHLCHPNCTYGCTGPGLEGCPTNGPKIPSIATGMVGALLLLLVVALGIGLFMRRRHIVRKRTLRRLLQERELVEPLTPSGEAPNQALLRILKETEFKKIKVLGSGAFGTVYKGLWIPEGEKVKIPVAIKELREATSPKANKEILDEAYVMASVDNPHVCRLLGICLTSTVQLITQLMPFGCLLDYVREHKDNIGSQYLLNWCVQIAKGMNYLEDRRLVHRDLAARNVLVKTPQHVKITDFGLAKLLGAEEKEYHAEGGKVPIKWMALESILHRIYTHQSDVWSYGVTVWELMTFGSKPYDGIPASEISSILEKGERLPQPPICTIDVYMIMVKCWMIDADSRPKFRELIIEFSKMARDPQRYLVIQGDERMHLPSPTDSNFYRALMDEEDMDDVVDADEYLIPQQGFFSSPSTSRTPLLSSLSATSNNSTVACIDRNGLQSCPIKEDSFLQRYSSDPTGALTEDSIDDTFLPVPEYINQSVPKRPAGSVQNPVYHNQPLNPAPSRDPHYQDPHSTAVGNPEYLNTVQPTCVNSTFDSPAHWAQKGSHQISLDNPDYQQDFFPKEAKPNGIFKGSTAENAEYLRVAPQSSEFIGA
Sequence of Platelet-activating factor receptor (Homo sapiens) (P25105 whole entry): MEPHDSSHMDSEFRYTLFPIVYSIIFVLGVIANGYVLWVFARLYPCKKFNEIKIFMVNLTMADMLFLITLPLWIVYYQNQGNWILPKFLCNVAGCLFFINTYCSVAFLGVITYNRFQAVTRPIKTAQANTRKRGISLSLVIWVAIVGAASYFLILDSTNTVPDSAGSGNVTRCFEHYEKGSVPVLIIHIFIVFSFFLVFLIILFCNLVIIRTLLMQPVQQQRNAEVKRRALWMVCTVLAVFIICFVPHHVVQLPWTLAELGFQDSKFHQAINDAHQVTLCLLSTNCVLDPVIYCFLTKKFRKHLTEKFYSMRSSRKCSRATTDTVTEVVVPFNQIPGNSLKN

Compound `C[C@H](N)Cn1ncc2ccc(O)cc21` has an EC50 [1] of 5.6 µM, an inhibition [2] of 15.8% and an inhibition [3] of -2.2%. The inhibition [4] was -5.17%, the inhibition [5] was 4.1% and the EC50 [6] was 0.0037 µM. For the same compound, the Ki [7] was over 30 µM, the inhibition [8] was 18.8% and the inhibition [9] was -6.1%. For the same compound, the EC50 [10] was 10 µM, the inhibition [11] was 3.93% and the inhibition [12] was -0.91%. For the same compound, the Ki [13] was over 10 µM, the T1/2 [14] was 4.6 yr and the inhibition [15] was 19.6%. The inhibition [16] was -6.53%, the EC50 [17] was 3.05 µM and the inhibition at 10 µM [18] was -18.4%.
